Assay [1] concerns the target T1, hFASN enzyme (full length) (Homo sapiens, UniProt P49327).
T1 construct: 10 μL hFASN enzyme (full length, 300 ng, purified in house); made in house
Briefly: Fatty Acid Synthase (FASN) inhibition scintillation proximity assay. Format: biochemical. Conditions: for inhibition at 10 µM: read-out: Human FASN % inhibition @ 10 μM, 10 μM test compound; for IC50: read-out: Human FASN pIC50 (converted). The essentials: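 Scintillation proximity format: in-house full-length enzyme, 300 ng per well, pH 7.5 phosphate/DTT buffer, ³H-acetyl-CoA and malonyl-CoA. Emission counted on LEADseeker at 610 nm at least 24 h after stopping.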
For orientation: Scintillation proximity formats need no separation of bound from free tracer.

Assay [2] has as its target Fatty Acid Synthase Keto-reductase Domain (FASN KR) (Homo sapiens, UniProt P49327). Briefly: Fatty Acid Synthase keto-reductase domain (FASN KR) inhibition, NADPH oxidation at 340 nm.
Description: After 20 minutes incubation at room temperature the plate was measured again (T2).
The decrease in absorbance was calculated as (Absorbance before incubation T1)−(Absorbance following incubation T2).
A plot of Controlmin versus test compound concentration was fitted to a 4-parameter logistic curve using a non-linear least squares regression method.
The test system of assay [3] is A2780 ovarian cells. Put plainly: A2780 ovarian cell proliferation assay in lipid reduced medium, without palmitate (MTT). Format: cell-based. As to conditions: Homo sapiens, A2780, 96 h; read-out: pIC50 A2780 Ovarian Cell, Without Palmitate (converted).
For assay [4], the system named is A2780 ovarian cells. Briefly: A2780 ovarian cell proliferation assay in lipid reduced medium, with palmitate (MTT). As to conditions: Homo sapiens, A2780, 96 h; read-out: pIC50 A2780 Ovarian Cell, With Palmitate (converted). The class given is cell-based. A digest of the protocol: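 In this palmitate-supplemented format, compound dilutions (30 μM down to 0.01 μM) are added to cells in lipid-reduced serum with 25 μM palmitate, 0.2% fatty-acid-free BSA and 0.25% ethanol. After four days (96 h) MTT absorbance at 544 nm is recorded and fitted by minimum sum of squares.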

Experimental findings from patent US10077261B2, “Imidazolin-5-one derivative useful as FASN inhibitors for the treatment of cancer” (Janssen Pharmaceutica NV, priority 2012, dated 2018) are described below.

The structures appear in SMILES notation.

Fatty Acid Synthase Keto-reductase Domain (FASN KR), sequence (P49327 whole entry, the tested form may be a part): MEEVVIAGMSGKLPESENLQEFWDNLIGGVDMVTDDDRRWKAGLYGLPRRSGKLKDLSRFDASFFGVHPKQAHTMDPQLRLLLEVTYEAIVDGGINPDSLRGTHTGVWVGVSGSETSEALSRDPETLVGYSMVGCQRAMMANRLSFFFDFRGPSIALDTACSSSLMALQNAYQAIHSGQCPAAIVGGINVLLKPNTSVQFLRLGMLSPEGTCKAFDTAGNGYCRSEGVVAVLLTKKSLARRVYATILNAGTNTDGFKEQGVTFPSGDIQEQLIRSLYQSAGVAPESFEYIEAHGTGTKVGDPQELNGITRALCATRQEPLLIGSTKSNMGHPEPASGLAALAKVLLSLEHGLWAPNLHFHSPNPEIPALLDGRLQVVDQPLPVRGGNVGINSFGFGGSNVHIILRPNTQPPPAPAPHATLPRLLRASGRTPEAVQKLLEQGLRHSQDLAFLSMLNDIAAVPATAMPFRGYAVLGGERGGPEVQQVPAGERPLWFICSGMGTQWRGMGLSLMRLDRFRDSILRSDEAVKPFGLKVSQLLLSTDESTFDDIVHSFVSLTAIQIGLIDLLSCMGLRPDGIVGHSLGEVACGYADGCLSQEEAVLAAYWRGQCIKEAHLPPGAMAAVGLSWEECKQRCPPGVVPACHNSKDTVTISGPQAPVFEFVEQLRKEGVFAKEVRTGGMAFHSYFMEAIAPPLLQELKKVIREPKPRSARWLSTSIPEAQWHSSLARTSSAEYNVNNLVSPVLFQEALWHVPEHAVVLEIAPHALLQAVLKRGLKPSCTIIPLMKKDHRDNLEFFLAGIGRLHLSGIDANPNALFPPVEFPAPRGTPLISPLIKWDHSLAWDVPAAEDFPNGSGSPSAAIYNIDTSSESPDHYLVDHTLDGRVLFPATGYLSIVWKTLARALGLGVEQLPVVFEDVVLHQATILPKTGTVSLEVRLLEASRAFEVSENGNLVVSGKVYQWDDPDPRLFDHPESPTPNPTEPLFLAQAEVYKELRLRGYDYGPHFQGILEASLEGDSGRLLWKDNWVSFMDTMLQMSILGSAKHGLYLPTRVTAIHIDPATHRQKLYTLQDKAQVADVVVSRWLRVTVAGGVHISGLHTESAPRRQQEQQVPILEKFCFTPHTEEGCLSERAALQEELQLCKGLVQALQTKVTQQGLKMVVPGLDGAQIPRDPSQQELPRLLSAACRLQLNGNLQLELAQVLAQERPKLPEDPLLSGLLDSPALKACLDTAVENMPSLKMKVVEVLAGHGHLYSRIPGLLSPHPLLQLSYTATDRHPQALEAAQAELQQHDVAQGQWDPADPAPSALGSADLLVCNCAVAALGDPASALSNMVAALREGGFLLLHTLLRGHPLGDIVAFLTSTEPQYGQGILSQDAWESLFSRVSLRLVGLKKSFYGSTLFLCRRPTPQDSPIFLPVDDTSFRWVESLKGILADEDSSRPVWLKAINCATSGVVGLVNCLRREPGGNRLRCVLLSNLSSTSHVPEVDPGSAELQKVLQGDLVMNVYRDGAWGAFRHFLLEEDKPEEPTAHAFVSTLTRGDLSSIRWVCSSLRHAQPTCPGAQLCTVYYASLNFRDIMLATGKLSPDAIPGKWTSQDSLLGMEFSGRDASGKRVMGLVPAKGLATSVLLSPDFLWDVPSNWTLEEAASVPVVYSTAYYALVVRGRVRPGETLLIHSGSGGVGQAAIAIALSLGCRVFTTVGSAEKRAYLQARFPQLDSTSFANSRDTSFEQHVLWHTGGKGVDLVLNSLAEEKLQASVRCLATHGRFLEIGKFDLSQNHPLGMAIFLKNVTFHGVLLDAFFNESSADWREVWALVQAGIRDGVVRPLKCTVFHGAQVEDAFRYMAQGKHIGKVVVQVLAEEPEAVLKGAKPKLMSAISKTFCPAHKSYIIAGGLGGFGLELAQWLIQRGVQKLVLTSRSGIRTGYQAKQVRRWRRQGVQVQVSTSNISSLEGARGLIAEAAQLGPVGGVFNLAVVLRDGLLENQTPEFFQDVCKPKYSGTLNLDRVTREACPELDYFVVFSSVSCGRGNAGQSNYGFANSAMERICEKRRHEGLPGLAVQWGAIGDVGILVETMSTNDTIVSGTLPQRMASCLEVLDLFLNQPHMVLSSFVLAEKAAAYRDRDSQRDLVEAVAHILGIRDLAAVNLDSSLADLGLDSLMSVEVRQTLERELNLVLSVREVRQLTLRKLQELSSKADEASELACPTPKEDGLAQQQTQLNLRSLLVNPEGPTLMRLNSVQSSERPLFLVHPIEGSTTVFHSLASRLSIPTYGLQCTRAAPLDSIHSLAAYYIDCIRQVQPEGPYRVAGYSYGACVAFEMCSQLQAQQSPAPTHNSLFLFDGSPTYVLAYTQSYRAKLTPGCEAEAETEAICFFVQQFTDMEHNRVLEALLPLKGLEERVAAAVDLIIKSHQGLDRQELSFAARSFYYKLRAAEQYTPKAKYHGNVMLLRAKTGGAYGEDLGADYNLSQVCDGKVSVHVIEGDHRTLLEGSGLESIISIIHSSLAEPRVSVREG
T1 sequence (P49327 whole entry): as the sequence (P49327 whole entry, the tested form may be a part) above

One may read the inhibition as the drop in the measured response relative to a control, in per cent. Take `C=CC(=O)N1CC[C@@H](CN2C(=O)C3(CCN(Cc4ccccc4)CC3)N=C2c2ccc(-c3ccc4occc4c3)cc2)C1` [compound 90, 3-{[(3R)-1-Acryloylpyrrolidin-3-yl]methyl}-2-[4-(1-benzofuran-5-yl)phenyl]-8-benzyl-1,3,8-triazaspiro[4.5]dec-1-en-4-one]: the inhibition at 10 µM in assay [1] is 101%. For the same compound, the IC50 is 309 nM in assay [1], 1350 nM in assay [2], 6310 nM with A2780 ovarian cells [3] and greater than 10000 nM in the assay with A2780 ovarian cells [4].
The like results for `O=C(C1CC1)N1CC[C@@H](CN2C(=O)C3(CCCC3)N=C2c2ccc(-c3cccc4[nH]ncc34)cc2)C1` [compound 92, 3-{[(3R)-1-(Cyclopropylcarbonyl)pyrrolidin-3-yl]methyl}-2-[4-(1H-indazol-4-yl)phenyl]-1,3-diazaspiro[4.4]non-1-en-4-one] were, in that order, 111%, 51.3 nM, 77.6 nM, 45.7 nM and greater than 10000 nM.
The like results for `Cc1cc(-c2ccc(Cl)cc2)ccc1C1=NC2(CCCC2)C(=O)N1C[C@@H]1CCN(C(=O)C2CC2)C1` [compound 93, 2-(4′-Chloro-3-methylbiphenyl-4-yl)-3-{[(3R)-1-(cyclopropylcarbonyl)pyrrolidin-3-yl]methyl}-1,3-diazaspiro[4.4]non-1-en-4-one] were, in that order, 116%, 75.9 nM, 263 nM, roughly 2090 nM and greater than 10000 nM.
The like results for `Cc1cc(-c2ccc(Cl)cc2Cl)ccc1C1=NC2(CCCC2)C(=O)N1C[C@@H]1CCN(C(=O)C2CC2)C1` [compound 94, 3-{[(3R)-1-(Cyclopropylcarbonyl)pyrrolidin-3-yl]methyl}-2-(2′,4′-dichloro-3-methylbiphenyl-4-yl)-1,3-diazaspiro[4.4]non-1-en-4-one] were, in that order, 111%, 145 nM, 891 nM, roughly 2140 nM and greater than 10000 nM.
Consider `Cc1ccc(-c2ccc(C3=NC4(CC4)C(=O)N3C[C@@H]3CCN(C(=O)C4CC4)C3)cc2)cc1` [compound 100, 6-{[(3R)-1-(Cyclopropylcarbonyl)pyrrolidin-3-yl]methyl}-5-(4′-methylbiphenyl-4-yl)-4,6-diazaspiro[2.4]hept-4-en-7-one], for which the inhibition at 10 µM in assay [1] amounted to 110%. In addition, the IC50 in assay [1] is 74.1 nM; in assay [2], 209 nM; in the assay with A2780 ovarian cells [3], 776 nM; with A2780 ovarian cells [4], greater than 10000 nM.
As for `Cc1cccc(-c2ccc(C3=NC4(CC4)C(=O)N3C[C@@H]3CCN(C(=O)C4CC4)C3)cc2)c1` [compound 101, 6-{[(3R)-1-(Cyclopropylcarbonyl)pyrrolidin-3-yl]methyl}-5-(3′-methylbiphenyl-4-yl)-4,6-diazaspiro[2.4]hept-4-en-7-one], the inhibition at 10 µM in assay [1] was determined as 112%. In addition, the IC50 in assay [1] was 81.3 nM; in assay [2], 380 nM; with A2780 ovarian cells [3], 1700 nM; in the assay on A2780 ovarian cells [4], greater than 10000 nM.
The like results for `O=C(C1CC1)N1CC[C@@H](CN2C(=O)C3(CC3)N=C2c2ccc(-c3cccc(F)c3)cc2)C1` [compound 102, 6-{[(3R)-1-(Cyclopropylcarbonyl)pyrrolidin-3-yl]methyl}-5-(3′-fluorobiphenyl-4-yl)-4,6-diazaspiro[2.4]hept-4-en-7-one] were, in that order, 107%, 209 nM, 1070 nM, 2290 nM and greater than 10000 nM.
With `COc1ccc(-c2ccc(C3=NC4(CC4)C(=O)N3C[C@@H]3CCN(C(=O)C4CC4)C3)cc2)cc1` [compound 103, 6-{[(3R)-1-(Cyclopropylcarbonyl)pyrrolidin-3-yl]methyl}-5-(4′-methoxybiphenyl-4-yl)-4,6-diazaspiro[2.4]hept-4-en-7-one], in assay [1], the inhibition at 10 µM came out at 109%. In addition, the IC50 in assay [1] is 67.6 nM; in assay [2] it was 316 nM; with A2780 ovarian cells [3], 851 nM; with A2780 ovarian cells [4] it was greater than 10000 nM.
The corresponding values for `O=C(C1CC1)N1CC[C@@H](CN2C(=O)C3(CC3)N=C2c2ccc(-c3ccc(F)cc3)cc2)C1` [compound 105, 6-{[(3R)-1-(Cyclopropylcarbonyl)pyrrolidin-3-yl]methyl}-5-(4′-fluorobiphenyl-4-yl)-4,6-diazaspiro[2.4]hept-4-en-7-one] are 104%, 100 nM, 501 nM, 955 nM and greater than 10000 nM.
The corresponding values for `O=C(C1CC1)N1CC[C@@H](CN2C(=O)C3(CCNCC3)N=C2c2ccc(-c3ccc4cnccc4c3)cc2)C1` [compound 106, 3-{[(3R)-1-(Cyclopropylcarbonyl)pyrrolidin-3-yl]methyl}-2-(4-isoquinolin-6-ylphenyl)-1,3,8-triazaspiro[4.5]dec-1-en-4-one] are 110%, 112 nM, 603 nM, 741 nM and greater than 10000 nM.
The corresponding values for `COc1cccc(-c2ccc(C3=NC4(CC4)C(=O)N3C[C@@H]3CCN(C(=O)C4CC4)C3)cc2)c1` [compound 113, 6-{[(3R)-1-(Cyclopropylcarbonyl)pyrrolidin-3-yl]methyl}-5-(3′-methoxybiphenyl-4-yl)-4,6-diazaspiro[2.4]hept-4-en-7-one] are 109%, 117 nM, 1070 nM, roughly 1780 nM and greater than 10000 nM.
With `O=C(C1CC1)N1CC[C@@H](CN2C(=O)C3(CC3)N=C2c2ccc(-c3ccc(Cl)cc3)cc2)C1` [compound 114, 5-(4′-Chlorobiphenyl-4-yl)-6-{[(3R)-1-(cyclopropylcarbonyl)pyrrolidin-3-yl]methyl}-4,6-diazaspiro[2.4]hept-4-en-7-one], the inhibition at 10 µM in assay [1] was 107%. The IC50 in assay [1] was 75.9 nM; in assay [2], 234 nM; with A2780 ovarian cells [3], roughly 832 nM; in the assay on A2780 ovarian cells [4], greater than 10000 nM.
For the compound `O=C(C1CC1)N1CC[C@@H](CN2C(=O)C3(CC3)N=C2c2ccc(-c3cccc(O)c3)cc2)C1` [compound 115, 6-{[(3R)-1-(Cyclopropylcarbonyl)pyrrolidin-3-yl]methyl}-5-(3′-hydroxybiphenyl-4-yl)-4,6-diazaspiro[2.4]hept-4-en-7-one], the inhibition at 10 µM in assay [1] is 113%. In addition, the IC50 in assay [1] is 30.2 nM; in assay [2], 123 nM; in the assay on A2780 ovarian cells [3], roughly 61.7 nM; with A2780 ovarian cells [4], greater than 10000 nM.
The corresponding values for `O=C(C1CC1)N1CC[C@H](CN2C(=O)C3(CC3)N=C2c2ccc(-c3ccc4[nH]ccc4c3)cc2)C1` [compound 210, (S)-5-(4-(1H-indol-5-yl)phenyl)-6-((1-(cy7clopropanecarbonyl)pyrrolidin-3-yl)methyl)-4,6-diazaspiro[2.4]hept-4-en-7-one] are 103%, 89.1 nM, 170 nM, 52.5 nM and greater than 10000 nM.
The like results for `O=C(C1CC1)N1CC[C@H](CN2C(=O)C3(CC3)N=C2c2ccc(-c3ccc4sccc4c3)cc2)C1` [compound 211, (S)-5-(4-(benzo[b]thiophen-5-yl)phenyl)-6-((1-(cyclopropanecarbonyl)pyrrolidin-3-yl)methyl)-4,6-diazaspiro[2.4]hept-4-en-7-one] were, in that order, 107%, 85.1 nM, 200 nM, roughly 708 nM and greater than 10000 nM.
The corresponding values for `O=C(C1CC1)N1CC[C@@H](CN2C(=O)C3(CC3)N=C2c2ccc(-c3ccc(-c4ccncc4)cc3)cc2)C1` [compound 235, (R)-6-((1-(cyclopropanecarbonyl)pyrrolidin-3-yl)methyl)-5-(4′-(pyridin-4-yl)-[1,1′-biphenyl]-4-yl)-4,6-diazaspiro[2.4]hept-4-en-7-one] are 111%, 23.4 nM, 45.7 nM, 10 nM and greater than 10000 nM.
`Cc1cc(-c2ccc3occc3c2)ccc1C1=NC2(CC2)C(=O)N1C[C@@H]1CCN(C(=O)C2CC2)C1` [compound 278, (R)-5-(4-(benzofuran-5-yl)-2-methylphenyl)-6-((1-(cyclopropanecarbonyl)pyrrolidin-3-yl)methyl)-4,6-diazaspiro[2.4]hept-4-en-7-one]: the inhibition at 10 µM in assay [1] amounted to 113%. Besides, the IC50 in assay [1] is 25.7 nM; in assay [2], 69.2 nM; in the assay with A2780 ovarian cells [3], roughly 692 nM; with A2780 ovarian cells [4], greater than 10000 nM.
The corresponding values for `Cc1cc(-c2ccc3sccc3c2)ccc1C1=NC2(CC2)C(=O)N1C[C@@H]1CCN(C(=O)C2CC2)C1` [compound 279, (R)-5-(4-(benzo[d]thiophen-5-yl)-2-methylphenyl)-6-((1-(cyclopropanecarbonyl)pyrrolidin-3-yl)methyl)-4,6-diazaspiro[2.4]hept-4-en-7-one] are 107%, 28.2 nM, 44.7 nM, 407 nM and greater than 10000 nM.
